Assay results as given in patent US8846656B2, “Tetrahydropyrido-pyridine and tetrahydropyrido-pyrimidine compounds and use thereof as C5a receptor modulators” (Novartis AG, priority 2011, dated 2014).

Target: human C5aR (Homo sapiens (Human), UniProt P21730)
Experiment: FLIPR assay: inhibition of C5a-mediated calcium mobilization
Format: cell-based
Settings: stable cell line over expressing human C5aR & Gα15, human C5a at EC50 (0.1-0.25 nM)
Description: Compounds were tested for their ability to inhibit C5a-mediated calcium mobilization using a stable cell line over expressing the human C5aR & the Gα15 protein on the FLIPR (Fluorescent Imaging Plate Reader) Tetra system. Cells were maintained in culture media containing DMEM (Dulbecco's Modified Eagle Medium) with 4.5 g/L glucose, 10% fetal bovine serum, 100 U/mL, 1× non-essential amino acid, and 250 μg/mL G418 (Geneticin). Prior to testing of compounds, cells were plated at 10,000 cells/well in clear bottom 384-well black plate, and incubated overnight at 37° C. with 5% CO2. On the day of experiment, culture media was removed, and replaced with assay buffer HBSS (Hanks' Balanced Salt Solution) with 20 mM HEPES (4-(2-hydroxyethyl)-1-piperazineethanesulfonic acid) and 0.1% BSA (bovine serum albumin) BSA containing calcium 5 dye (Molecular Devices) and 2.5 mM probenecid. After 1 hour incubation at 37° C., 5% CO2 for 60 min, cells were pre-incubated with compounds for 30 minutes at room temperature, in 1% DMSO (dimethyl sulfoxide).

Chain of human C5aR (P21730 whole entry): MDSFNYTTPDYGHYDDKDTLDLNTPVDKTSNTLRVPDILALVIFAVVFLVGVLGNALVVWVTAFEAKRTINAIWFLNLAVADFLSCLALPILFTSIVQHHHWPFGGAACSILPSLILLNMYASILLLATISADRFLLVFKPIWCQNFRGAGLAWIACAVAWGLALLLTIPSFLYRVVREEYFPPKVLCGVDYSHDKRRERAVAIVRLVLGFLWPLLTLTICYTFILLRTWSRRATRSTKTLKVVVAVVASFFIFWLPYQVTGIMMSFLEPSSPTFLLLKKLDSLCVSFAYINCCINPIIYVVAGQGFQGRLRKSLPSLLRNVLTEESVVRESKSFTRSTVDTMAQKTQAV

| IC50 [nM] | Compound |
| --- | --- |
| 23 | CC(=O)N1CCN(c2nc(-c3ccccc3C(F)(F)F)nc3c2CN(c2cc(C(C)C)ccc2C)CC3)[C@H](C)C1 [Example 25-F, (R)-1-(4-(6-(5-isopropyl-2-methylphenyl)-2-(2-(trifluoromethyl)phenyl)-5,6,7,8-tetrahydropyrido[4,3-d]pyrimidin-4-yl)-3-methylpiperazin-1-yl)ethanone] |
| 94 | CNc1nc(-c2cccc3[nH]cc(C)c23)nc2c1CN(c1cc(C(C)C)ccc1C)CC2 [Example 17-AJ, 6-(5-isopropyl-2-methylphenyl)-N-methyl-2-(3-methyl-1H-indol-4-yl)-5,6,7,8-tetrahydropyrido[4,3-d]pyrimidin-4-amine] |
| 1 | CO[C@@H]1CCN(c2nc(-c3c(C)ccc4[nH]nc(C)c34)nc3c2CN(c2c(Cl)c(C(F)F)nn2C)CC3)CC1(C)C [Example 55-I, (R)-6-(4-chloro-3-(difluoromethyl)-1-methyl-1H-pyrazol-5-yl)-2-(3,5-dimethyl-1H-indazol-4-yl)-4-(4-methoxy-3,3-dimethylpiperidin-1-yl)-5,6,7,8-tetrahydropyrido[4,3-d]pyrimidine] |
| 746 | CO[C@H]1CCN(c2nc(-c3cccc4cnn(C)c34)nc3c2CN(c2cc(C4(C)COC4)ccc2C)CC3)CC1(C)C [Example 19-L, (S)-4-(4-methoxy-3,3-dimethylpiperidin-1-yl)-2-(1-methyl-1H-indazol-7-yl)-6-(2-methyl-5-(3-methyloxetan-3-yl)phenyl)-5,6,7,8-tetrahydropyrido[4,3-d]pyrimidine] |
| 131 | [2H]C1([2H])c2c(C)cc(-c3c(CC)cccc3CC)nc2CCN1c1c(C)ccnc1C [Example 44-D, 2-(2,6-Diethylphenyl)-6-(2,4-dimethylpyridin-3-yl)-4-methyl-5,6,7,8-tetrahydro(5,5-^2H2)-1,6-naphthyridine] |
| 112 | COc1ccc(Cl)cc1-c1nc2c(c(N3CCCC(C)(C)C3)n1)CN(c1cc(C(C)C)ccc1C)CC2 [Example 19-Q, 2-(5-chloro-2-methoxyphenyl)-4-(3,3-dimethylpiperidin-1-yl)-6-(5-isopropyl-2-methylphenyl)-5,6,7,8-tetrahydropyrido[4,3-d]pyrimidine] |
| 31 | Cc1ccc(C)c(-c2nc3c(c(N4CCN(CC(N)=O)C[C@H]4C)n2)CN(c2cc(C(C)C)ccc2C)CC3)c1 [Example 24-C, (R)-2-(4-(2-(2,5-Dimethylphenyl)-6-(5-isopropyl-2-methylphenyl)-5,6,7,8-tetrahydropyrido[4,3-d]pyrimidin-4-yl)-3-methylpiperazin-1-yl)acetamide] |
| 39 | Cc1ccc(C(C)C)cc1N1CCc2nc(-c3cccc4[nH]cc(C)c34)nc(N3CCC[C@@H]3CO)c2C1 [Example 17-AZ, (R)-(1-(6-(5-isopropyl-2-methylphenyl)-2-(3-methyl-1H-indol-4-yl)-5,6,7,8-tetrahydropyrido[4,3-d]pyrimidin-4-yl)pyrrolidin-2-yl)methanol] |
| 37 | CCn1nc(C)c(N2CCc3nc(-c4c(C)ccc5[nH]ncc45)cc(C)c3C2)c1C [Example 40-P, 6-(1-ethyl-3,5-dimethyl-1H-pyrazol-4-yl)-4-methyl-2-(5-methyl-1H-indazol-4-yl)-5,6,7,8-tetrahydro-1,6-naphthyridine] |
| 74 | COCCCOc1nc(-c2c(C)cccc2C)nc2c1CN(c1cc(C(C)C)ccc1C)CC2 [Example 39-D, 2-(2,6-Dimethylphenyl)-6-(5-isopropyl-2-methylphenyl)-4-(3-methoxypropoxy)-5,6,7,8-tetrahydropyrido[4,3-d]pyrimidine] |
| 415 | Cc1ccc(C(C)C)cc1N1CCc2nc(-c3cccc4[nH]cc(C)c34)nc(N3CC4(COC4)C3)c2C1 [Example 17-BE, 6-(6-(5-isopropyl-2-methylphenyl)-2-(3-methyl-1H-indol-4-yl)-5,6,7,8-tetrahydropyrido[4,3-d]pyrimidin-4-yl)-2-oxa-6-azaspiro[3.3]heptanes] |
| 58 | [2H]C1([2H])c2c(C)cc(-c3c(CC)cccc3CC)nc2CC(C)N1c1cc(C2CC2)nn1C (stereo not drawn) [Example 42-H, 6-(3-cyclopropyl-1-methyl-1H-pyrazol-5-yl)-2-(2,6-diethylphenyl)-4,7-dimethyl-5,6,7,8-tetrahydro(5,5-^2H2)-1,6-naphthyridine] |
| 2 | CCO[C@@H]1CCN(c2nc(-c3c(C)ccc4[nH]nc(C)c34)nc3c2CN(c2c(F)c(C4CC4)nn2C)CC3)CC1(C)C [Example 56-E, (R)-6-(3-cyclopropyl-4-fluoro-1-methyl-1H-pyrazol-5-yl)-2-(3,5-dimethyl-1H-indazol-4-yl)-4-(4-ethoxy-3,3-dimethylpiperidin-1-yl)-5,6,7,8-tetrahydropyrido[4,3-d]pyrimidine] |
| 550 | COc1ccc(Cl)c(-c2cc(C)c3c(n2)CCN(c2cc(C(C)C)ccc2C)C3)c1 [Example 41-F, 2-(2-chloro-5-methoxyphenyl)-6-(5-isopropyl-2-methylphenyl)-4-methyl-5,6,7,8-tetrahydro-1,6-naphthyridine] |
| 4 | [2H]C1([2H])c2c(C)cc(-c3c(CC)cccc3CC)nc2CC(C)N1c1cc(C(C)C)ccc1C (single isomer, unassigned) [Example 42-L, 2-(2,6-diethylphenyl)-6-(5-isopropyl-2-methylphenyl)-4,7-dimethyl-5,6,7,8-tetrahydro(5,5-^2H2)-1,6-naphthyridine] |
| 48 | Cc1cccc(C)c1-c1nc2c(c(N3CCCC(C)(C)C3)n1)CN(c1cc(C(C)C)nn1C)CC2 [Example 16-I, 2-(2,6-Dimethylphenyl)-4-(3,3-dimethylpiperidin-1-yl)-6-(3-isopropyl-1-methyl-1H-pyrazol-5-yl)-5,6,7,8-tetrdhydropyrido[4,3-d]pyrimidine] |
| 164 | Cc1ccc(C(C)C)cc1N1CCc2nc(-c3c(C4CC4)cnc4[nH]ccc34)nc(N3CCCC(C)(C)C3)c2C1 [Example 20-D, 2-(5-Cyclopropyl-1H-pyrrolo[2,3-b]pyridin-4-yl)-4-(3,3-dimethylpiperidin-1-yl)-6-(5-isopropyl-2-methylphenyl)-5,6,7,8-tetrahydropyrido[4,3-d]pyrimidine] |
| 464 | Cc1c[nH]c2cccc(-c3nc4c(c(N5CCN(CC(N)=O)[C@H](C)C5)n3)CN(c3ccc(F)cc3F)CC4)c12 [Example 24-I, (R)-2-(4-(6-(2,4-difluorophenyl)-2-(3-methyl-1H-indol-4-yl)-5,6,7,8-tetrahydropyrido[4,3-d]pyrimidin-4-yl)-2-methylpiperazin-1-yl)acetamide] |
| 15 | Cc1ccc(C(C)C)cc1N1CCc2nc(-c3cccc4[nH]cc(C)c34)nc(N3CC(N(C)C)C3)c2C1 [Example 17-BG, 1-(6-(5-isopropyl-2-methylphenyl)-2-(3-methyl-1H-indol-4-yl)-5,6,7,8-tetrahydropyrido[4,3-d]pyrimidin-4-yl)-N,N-dimethylazetidin-3-amine] |
| 217 | [2H]C1([2H])c2c(C)cc(-c3c(CC)cccc3CC)nc2CC(C)N1c1cc(C(C)C)ccc1C (single isomer, unassigned) [Example 42-K, 2-(2,6-diethylphenyl)-6-(5-isopropyl-2-methylphenyl)-4,7-dimethyl-5,6,7,8-tetrahydro(5,5-^2H2)-1,6-naphthyridine] |
| 65 | CO[C@H]1CCN(c2nc(-c3ccccc3C(F)(F)F)nc3c2CN(c2cc(C4CC4)ccc2C)CC3)CC1(C)C [Example 19-K, (S)-6-(5-cyclopropyl-2-methylphenyl)-4-(4-methoxy-3,3-dimethylpiperidin-1-yl)-2-(2-(trifluoromethyl)phenyl)-5,6,7,8-tetrahydropyrido[4,3-d]pyrimidine] |
| 19 | Cc1ccc(C(C)C)cc1N1CCc2nc(-c3cccc4[nH]cc(C)c34)nc(N3CCC(O)C(C)(C)C3)c2C1 (stereo not drawn) [Example 17-AI, l-(6-(5-isopropyl-2-methylphenyl)-2-(3-methyl-1H-indol-4-yl)-5,6,7,8-tetrahydropyrido[4,3-d]pyrimidin-4-yl)-3,3-dimethylpiperidin-4-ol] |
| 29 | CO[C@H]1CCN(c2nc(-c3cccc4[nH]cc(C)c34)nc3c2CN(c2cc(C4CC4)ccc2C)CC3)CC1(C)C [Example 19-N, (S)-6-(5-cyclopropyl-2-methylphenyl)-4-(4-methoxy-3,3-dimethylpiperidin-1-yl)-2-(3-methyl-1H-indol-4-yl)-5,6,7,8-tetrahydropyrido[4,3-d]pyrimidine] |
| 21 | Cc1ccc(C(C)C)cc1N1CCc2nc(-c3cccc4[nH]nc(C)c34)cc(C)c2C1 [Example 41-E, 6-(5-isopropyl-2-methylphenyl)-4-methyl-2-(3-methyl-1H-indazol-4-yl)-5,6,7,8-tetrahydro-1,6-naphthyridine] |
| 180 | CCc1cccc(CC)c1-c1cc(C)c2c(n1)CCN(c1ccc(C)cc1C)C2 [Example 40-L, 2-(2,6-diethylphenyl)-6-(2,4-dimethylphenyl)-4-methyl-5,6,7,8-tetrahydro-1,6-naphthyridine] |
| 790 | COCCN(C)c1cc(-c2c(C)cccc2C)nc2c1C(=O)N(c1cc(C(C)C)ccc1C)CC2 [Example 50-E, 2-(2,6-dimethylphenyl)-6-(5-isopropyl-2-methylphenyl)-4-((2-methoxyethyl)(methyl)amino)-7,8-dihydro-1,6-naphthyridin-5(6H)-one] |
| 30 | Cc1ccc(C(C)C)cc1N1CCc2nc(-c3cccc4[nH]cc(C)c34)nc(N[C@@H](CO)C(C)C)c2C1 [Example 17-M, (R)-2-((6-(5-isopropyl-2-methylphenyl)-2-(3-methyl-1H-indol-4-yl)-5,6,7,8-tetrahydropyrido[4,3-d]pyrimidin-4-yl)amino)-3-methylbutan-1-ol] |
